# Results from ChEMBL document CHEMBL3137667, “[Drug-induced liver injury; fourteenth updated edition of the bibliographic database of liver injuries and related drugs]” (Gastroenterol Clin Biol, 2004).
# How the values were obtained:
# [1] = Highest frequency of moderate liver toxicity observed during clinical trials, expressed as a percentage. [column '% BIOL' in source]; settings: human
# [2] = Highest frequency of acute liver toxicity observed during clinical trials, expressed as a percentage. [column '% AIGUE' in source]; settings: human
# [3] = Comments (NB not yet translated). [column 'COMMENTAIRES' in source]; settings: human
# [4] = Times to onset, minimal and maximal, observed in the indexed observations. [column 'DELAI' in source]; settings: human
# [5] = human, serum
# [6] = human, serum; remark: listed apart in the source
# [7] = human
# [8] = human; remark: listed apart in the source
# [9] = human; remark: listed apart in the source
# [10] = human, serum, 4383 h
# [11] = human; remark: listed apart in the source
# [12] = human; remark: listed apart in the source
# [13] = human; remark: listed apart in the source
# [14] = human; remark: listed apart in the source
# [15] = human; remark: listed apart in the source
# [16] = human; remark: listed apart in the source
# 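For Hepatotoxicity (association with vascular disease) in this document: count of indexed literature references reporting vascular liver injury in humans, e.g. peliosis hepatitis, hepatic veno-occlusive disease or Budd-Chiari syndrome.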
# 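For Hepatotoxicity (benign tumour) in this document: value is a count of indexed literature references citing a benign tumour confirmed by histopathology.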
# 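For Hepatotoxicity (choleostasis) in this document: human cholestatic liver injury, shown by histopathology or by peak ALT or AST elevation over alkaline phosphatase ratio below 2, value counts indexed literature reports.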
# 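For Hepatotoxicity (chronic liver disease) in this document: chronic liver injury confirmed by histopathology or persistently raised serum aminotransferase activity beyond 6 months, value given as the count of indexed literature references.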
# 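For Hepatotoxicity (cirrhosis) in this document: value is a count of indexed literature references reporting cirrhosis confirmed by histopathology.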
# 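For Hepatotoxicity (cytolytic) in this document: human cytolytic liver injury, shown by histopathology or by a ratio above 5 of peak ALT or AST elevation to alkaline phosphatase elevation, value counts indexed references.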
# 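For Hepatotoxicity (granulomatous hepatitis) in this document: value is a count of indexed literature references reporting granulomatous liver disease confirmed by histopathology.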
# 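For Hepatotoxicity (malignant tumour) in this document: malignant tumour confirmed by histopathology, value gives the count of indexed literature references reporting it.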
# 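For Hepatotoxicity (severe hepatitis) in this document: human clinical data: severe hepatitis, meaning potentially life-threatening liver failure or clinically observed cases, the value counts how many indexed literature references report it.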
# 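For Hepatotoxicity (steatosis) in this document: steatosis confirmed by histopathology, value is the count of indexed references.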
Structure (SMILES),Hepatotoxicity (moderate) [1],Hepatotoxicity (acute) [2],Hepatotoxicity (comment) [3],Hepatotoxicity (time to onset) [4],Hepatotoxicity (moderate) [5],Hepatotoxicity (acute) [6],Hepatotoxicity (cytolytic) [7],Hepatotoxicity (choleostasis) [8],Hepatotoxicity (severe hepatitis) [9],Hepatotoxicity (chronic liver disease) [10],Hepatotoxicity (cirrhosis) [11],Hepatotoxicity (granulomatous hepatitis) [12],Hepatotoxicity (association with vascular disease) [13],Hepatotoxicity (steatosis) [14],Hepatotoxicity (malignant tumour) [15],Hepatotoxicity (benign tumour) [16],other results
O=C(CCNNC(=O)c1ccncc1)NCc1ccccc1 [NIALAMIDE],0%,0%,RC/PHENIPRAZINE,3 weeks,0,2,2,1,0,0,0,0,0,1,0,0,–
CC(C)(Oc1ccc(CCNC(=O)c2ccc(Cl)cc2)cc1)C(=O)O [BEZAFIBRATE],10%,0%,I/PERHEXILINE,3 weeks - 3 months,5,2,1,0,1,0,0,0,0,0,0,0,–
CC(C)(C)NCC(O)c1cc(O)cc(O)c1 (stereo not given) [TERBUTALINE],0%,0%,VOIR_BAMBUTEROL,4 weeks - 8 weeks,0,2,2,0,0,0,0,0,0,0,0,0,–
Nc1c(CC(=O)O)cccc1C(=O)c1ccc(Br)cc1 [BROMFENAC],0%,0%,AC_ANTI-N,2 weeks - 8 months,0,7,7,0,7,0,0,0,0,0,0,0,–
CC1COc2c(N3CCN(C)CC3)c(F)cc3c(=O)c(C(=O)O)cn1c23 (stereo not given) [OFLOXACIN],42.2%,18.2%,I/PYRAZINAMIDE,4 days - 26 weeks,61,11,6,5,2,0,0,1,0,0,0,0,–
O=C(c1ccc(OCCN2CCCCC2)cc1)c1c(-c2ccc(O)cc2)sc2cc(O)ccc12 [RALOXIFENE],16.7%,0%,CHOLESTASE_PROLONGEE,30 days,1,1,0,1,0,0,0,0,0,0,0,0,–
C[C@]12CC[C@H]3[C@@H](CCC4=CC(=O)CC[C@@]43C)[C@@H]1CC[C@@H]2O [TESTOSTERONE],0%,0%,ANGIOSARCOME CHOLESTASE_PROLONGEE PELIOSE,3 months - 11 years,0,3,0,3,1,0,0,0,6,0,2,3,–
CCN1CCN(C(=O)N[C@@H](C(=O)N[C@@H]2C(=O)N3C(C(=O)O)=C(CSc4nnnn4C)CS[C@H]23)c2ccc(O)cc2)C(=O)C1=O [CEFOPERAZONE],–,–,CHOLANGITE,23 days,15,0,0,0,–,0,0,0,0,0,0,0,Hepatotoxicity (moderate) ([1]; Liver): 20%; Hepatotoxicity (acute) ([2]; Liver): 0%; Hepatotoxicity (severe hepatitis) ([9]; Liver): 1
CC/C(=C(/CC)c1ccc(OP(=O)(O)O)cc1)c1ccc(OP(=O)(O)O)cc1 [DIETHYLSTILBESTROL DIPHOSPHATE],6.3%,0%,NASH,3 months - 9 years,1,0,0,0,0,1,1,0,0,1,0,0,–
CCO.CN1CCC[C@H]1c1cccnc1,–,–,CHOLANGITE,8 months - 10 years,2,3,–,–,–,1,0,–,0,0,0,0,Hepatotoxicity (moderate) ([1]; Liver): 4%; Hepatotoxicity (acute) ([2]; Liver): 0%; Hepatotoxicity (cytolytic) ([7]; Liver): 1; Hepatotoxicity (choleostasis) ([8]; Liver): 2; Hepatotoxicity (severe hepatitis) ([9]; Liver): 0; Hepatotoxicity (granulomatous hepatitis) ([12]; Liver): 0
